Measurements from US20250339426A1, “GCN2 MODULATOR FOR TREATING CANCER” (HIBERCELL, INC., priority 2022, published 2025).

System: ATF4, ASNS in FaDu cells
Test: Jess protein analysis, FaDu cells
Type: cell-based, human
Details: 0.01 and 0.1 μM, 72 hr, sgControl vs sgGCN2
Experimental: Cell lysates were obtained from FaDu sgControl or sgGCN2 cells treated with HC-7366 (0, 0.01, 0.1 and 1 μM) for 72 hr. Ice cold 1x radioimmunoprecipitation assay (RIPA) lysis buffer supplemented with protease and phosphatase inhibitors was added to the cell pellets, on ice. After 30 min on ice the cell lysates were centrifuged at 4° C., 12,000 rpm for 15 minutes and the supernatant was collected. Protein concentration was determined using BCA kit. The cell lysates were mixed with 5×SDS loading buffer and denatured at 95° C. for 5 minutes. 1 μg lysate was run on Jess capillary and results were analyzed by compass simple western software. The following primary antibodies were used: p-GCN2 T899 (Abcam #ab75836), GCN2 (Cell Signaling #3302), ATF4 (Cell Signaling #11815) and ASNS (Proteintech #14681). Anti-rabbit secondary antibody was from ProteinSimple #042-206.

Question: `CNC(=O)c1ncn2cc(-c3c(F)ccc(NS(=O)(=O)c4cc(Cl)cnc4OC)c3F)ncc12` [HC-7366, 6-(3-((5-chloro-2-methoxypyridine)-3-sulfonamido)-2,6-difluorophenyl)-N-methylimidazo[1,5-a]pyrazine-1-carboxamide] was tested. Which “levels of ATF4 and ASNS” value did it give?
Answer: GCN2-dependent increase
